{
  "source": "patent US20140256663A1",
  "about": "“Amphotericin Analogous Compounds and Pharmaceutical Compositions Containing Them” (CENTRO DE INVESTIGACION Y DE ESTUDIOS AVANZADOS DEL …, priority 2010, published 2014)",
  "key": {"[1]": {"test": "Unit channel studies in chicken egg lecithin bilayers with cholesterol", "description": "The activity is determined by the presence of the different channels formed by polyenes in the lipid bilayer (Cotero, et al., supra; Venegas, et al., supra). […] These values were determined by the technique of unit channel delineated above.\nUnit channel studies were performed according to procedures described earlier (Cotero, et al., supra, Venegas, et al., supra). Required liposomal suspensions were prepared using lecithin with cholesterol or ergosterol. These suspensions were placed in an ultrasonic bath for 15 minutes to produce unilamellar vesicles. Subsequently, the suspension was placed in a 100 μl eppendorf and a lipid bilayer was formed on the tip of a micro-electrode. The unit channels of amphotericin and of the invented compounds were incorporated to this bilayer. The unit channel current of the various compounds was recorded with an electrometer, and then these records were analyzed by determining the activity of the compounds and the characteristics of the channels formed.\nThe activity is determined by the presence of the various channels formed by polyenes in the lipid bilayer (Cotero, et al., supra, Venegas, et al., supra). […] This conductance is the effect of all the channels present and was determined by the unit channel technique earlier described."}, "[2]": {"tested_on": "Candida kruzei", "test": "Antifungal activity in vitro by flow cytometry, Candida kruzei", "type": "cell-based", "conditions": "read-out: CF50 Candida kruzei", "description": "The antifungal activity of the polyene macrolide derivate of the present invention was determined by flow cytometry method earlier described (Pinto et al., J. Medical Microbiology, 2009; 58, 1454-1462; Pina-Vaz and Rodriguez, Methods Mol. Biol. 2010; 638:281-289). For the test two strains of Candida albicans (ATCC 10231 and 752) and Candida kruzei were used. A cellular suspension of 1×10^6 UFC/mL was used, which has sown in 96-well plates. […] As controls were used: untreated yeasts (control of living cells), yeasts exposed to UV radiation (arrest, inhibition of proliferation), and yeasts exposed at temperature of 100° C. (dead yeasts). Cells were collected by centrifugation at 10,000×g for 10 min, they were washed once in phosphate buffer. […] of propidium iodide 0.1 mg/mL were added to the cell suspension. It was incubated during 30 minutes at room temperature and protected from light. Finally, the samples were analyzed by flow cytometry (Becton-Dickinson Facsc Calibur, laser argon 480 nm). The intrinsic parameters and fluorescence in the FL2 channel (yellow/orange fluorescence) for FUN and channel FL3 (red fluorescence, filter 630 nm) for propidium iodide were acquired and registered on a logarithmic scale for a minimum of 7500 events per sample. For data analysis, the quadrants were adjusted in a plot of data lines of fluorescence intensity of samples. […] These quadrants were used to quantify the percentile of cells showing altered fluorescence compared to drug-free controls."}, "[3]": {"tested_on": "human erythrocytes", "test": "Hemolytic assay on human erythrocytes", "type": "cell-based", "conditions": "1 hour", "description": "The hemotoxicity of the polyene macrolide derivative of the present invention was determined by measuring the toxicity to human erythrocytes (values HE50) using a method established by Cybulska, et al. (Cybulska, B., Borowski, E. and Gary-Bobo, M. Relationship between ionophoric and hemolytic activities of perimycin A and vacidin A, two polyene macrolide antifungal antibiotics. Biochem Pharmacol. 1989; 38(11): 1755-1762). For determining the haematoxicity 2 mL blood were obtained and placed in a tube with EDTA. The number of erythrocytes was counted in a Neubauer chamber, and 1×10^7 cells/mL were placed in test tubes. The erythrocytes were resuspended in 450 μL of KCl 150 mM+Tris 3 mM buffer. The erythrocytes were treated with concentrations of 0.01, 0.1, 1, 10 y 100 μM and incubated in a water bath for 1 hour. They were then centrifuged at 1500 rpm for 15 seconds; 150 μL were taken from the supernatant and placed in 96-well plates; the optical density of each group was measured using a plate reader at a wavelength of 550 nm. We included one tube with the drug solvent (DMSO 1%) as internal control. We also included one tube only with erythrocytes and 500 μl of buffer KCl 150 mM+Tris 3 mM, which we consider as a negative control group and a tube with 500 μl of red cells and 35 mM NaCl (positive control)."}, "[4]": {"tested_on": "Candida albicans ATCC 10231", "test": "Antifungal activity in vitro by flow cytometry, Candida albicans ATCC 10231", "type": "cell-based"}, "[5]": {"conditions": "200 μM compound, 30 mol % cholesterol, 27° C."}},
  "note": "Read-outs that look alike come from different tables or passages of the source.",
  "data": [
    {"smiles": "COC(=O)[C@@H](Cc1c[nH]c2ccccc12)NC(=O)[C@@H]1C(O)C[C@@]2(O)C[C@@H](O)C[C@@H](O)[C@H](O)CC[C@@H](O)C[C@@H](O)CC(=O)OC(C)C(C)[C@H](O)C(C)/C=C/C=C/C=C/C=C/C=C/C=C/C=C/[C@H](OC3OC(C)C(O)C(N)C3O)CC1O2", "note": "(some centres unmarked) [A-7, N-(D)-tryptophanamide of AmB]", "values": [
      {"measurement": "Opening probability, channel type I", "setting": "[1]; [5]", "value": 14, "unit": "%"},
      {"measurement": "Opening probability, channel type II", "setting": "[1]; [5]", "value": 7, "unit": "%"},
      {"measurement": "Opening probability, channel type III", "setting": "[1]; [5]", "value": "<1", "unit": "%"},
      {"measurement": "Opening probability, channel type IV", "setting": "[1]; [5]", "value": "<1", "unit": "%"},
      {"measurement": "Opening probability, channel type V", "setting": "[1]; [5]", "value": "<1", "unit": "%"},
      {"measurement": "Opening probability, channel type VI", "setting": "[1]; [5]", "value": "N.O."},
      {"measurement": "activity of transmembranal channels in the cholesterol membrane", "setting": "[1]; in words, compared to AmB", "value": "more reduced activity of transmembranal channels"},
      {"measurement": "IC50", "setting": "[2]; 24 h", "value": "> 10", "unit": "µM"},
      {"measurement": "HE50 (Hemolysis 50)", "setting": "[3]", "value": 80, "unit": "µM"},
      {"measurement": "IC50", "setting": "[4]; ATCC10231, 24 h, read-out: CF50 Candida albicans ATCC 10231", "value": 1.5, "unit": "µM"}
    ]},
    {"smiles": "C[C@@H]1[C@H](O)[C@@H](C)/C=C/C=C/C=C/C=C/C=C/C=C/C=C/[C@H](O[C@@H]2O[C@H](C)[C@@H](O)[C@H](N)[C@@H]2O)C[C@@H]2O[C@](O)(C[C@@H](O)C[C@@H](O)[C@H](O)CC[C@@H](O)C[C@@H](O)CC(=O)O[C@H]1C)C[C@H](O)[C@H]2C(=O)O", "note": "[AmB, Amphotericin B]", "values": [
      {"measurement": "Average conductance cholesterol", "setting": "[1]; AmB 6 μM, 30° C.", "value": "26.6 ± 9.9", "unit": "fS"},
      {"measurement": "IC50", "setting": "[2]; 24 h at 37° C.", "value": "> 10", "unit": "µM"},
      {"measurement": "HE50 (Hemolysis 50)", "setting": "[3]", "value": 7, "unit": "µM"},
      {"measurement": "MIC50", "setting": "[4]; ATCC10231, Compounds of the present invention", "value": 0.2, "unit": "µg/mL"}
    ]}
  ]
}
